Source: patent publication US20190177771A1, “PNA PROBE FOR DISCRIMINATION OF QUINOLONE ANTIBIOTIC RESISTANT BACTERIA AND METHOD FOR DISCRIMINATION OF ANTIBIOTIC RESISTANT BACTERIA USING THE SAME” (priority 2017, published 2019)
Values after ≈ are worked out from the molar mass of the structure shown.

How the values were obtained:
S. parauberis = assay: MIC measurement of S. parauberis strains for quinolone antibiotic; format: cell-based; conditions: Streptococcus parauberis
Method: (§1) Using S. parauberis, E. tarda, and V. harveyi samples stored in the National Institute of Fisheries Science, MIC values were measured.

E. tarda = assay: MIC measurement of E. tarda strains for quinolone antibiotics; format: cell-based; conditions: Edwardsiella tarda
Method: as §1

V. harveyi = assay: MIC measurement of V. harveyi strains for quinolone antibiotics; format: cell-based, Vibrio harveyi; conditions: for MIC: Vibrio harveyi
Method: as §1

[1] = E. tarda strain FP2074, gyrA Arg83
[2] = E. tarda strain FP2130, gyrA Arg83
[3] = E. tarda strain FP2240, gyrA Ser83
[4] = E. tarda strain FP2243, gyrA Arg83
[5] = E. tarda strain FP3071, gyrA Arg83
[6] = E. tarda strain FP3139, gyrA Ile83
[7] = E. tarda strain FPa4445, gyrA Arg83
[8] = V. harveyi strain FP4541, gyrA Ile83
[9] = V. harveyi strain FP3023, gyrA Ser83
[10] = V. harveyi strain FP3031, gyrA Ser83
[11] = V. harveyi strain FP3457, gyrA Ser83
[12] = V. harveyi strain FP7021, gyrA Ser83
[13] = V. harveyi strain FP8045, gyrA Ser83

Row | Compound | MIC (S. parauberis; S. parauberis strain FP3059, gyrA Ser81) | MIC (S. parauberis; S. parauberis strain FP3227, gyrA Ser81) | MIC (S. parauberis; S. parauberis strain FP4029, gyrA Ser81) | MIC (S. parauberis; S. parauberis strain FP4031, gyrA Ser81) | MIC (S. parauberis; S. parauberis strain FP5227, gyrA Ser81) | MIC (S. parauberis; S. parauberis strain FPa4533, gyrA Leu81) | MIC (E. tarda; [1]) | MIC (E. tarda; [2]) | MIC (E. tarda; [3]) | MIC (E. tarda; [4]) | MIC (E. tarda; [5]) | MIC (E. tarda; [6]) | MIC (E. tarda; [7]) | susceptibility of the strain to the antibiotic, in words (V. harveyi; [8]) | MIC (V. harveyi; [9]) | MIC (V. harveyi; [10]) | MIC (V. harveyi; [11]) | MIC (V. harveyi; [8]) | MIC (V. harveyi; [12]) | MIC (V. harveyi; [13])
1 | O=C(O)c1cn(C2CC2)c2cc(N3CCNCC3)c(F)cc2c1=O [Cipfloxacin, ciprofloxacin] | 0.13 µg/mL (≈ 0.392 µM) | 1 µg/mL (≈ 3.02 µM) | 0.5 µg/mL (≈ 1.51 µM) | 0.25 µg/mL (≈ 0.754 µM) | 0.06 µg/mL (≈ 0.181 µM) | 2 µg/mL (≈ 6.04 µM) | 0.13 µg/mL (≈ 0.392 µM) | 1 µg/mL (≈ 3.02 µM) | < 0.06 µg/mL | 0.5 µg/mL (≈ 1.51 µM) | 0.25 µg/mL (≈ 0.754 µM) | 4 µg/mL (≈ 12.1 µM) | 2 µg/mL (≈ 6.04 µM) | – | – | – | – | – | – | –
2 | CC1CCc2cc(F)cc3c(=O)c(C(=O)O)cn1c23 (centres unmarked) [Flumequine] | – | – | – | – | – | – | 8 µg/mL (≈ 30.6 µM) | 64 µg/mL (≈ 245 µM) | 1 µg/mL (≈ 3.83 µM) | 32 µg/mL (≈ 122 µM) | 16 µg/mL (≈ 61.2 µM) | ≥ 512 µg/mL | 32 µg/mL (≈ 122 µM) | resistance | 1 µg/mL (≈ 3.83 µM) | 2 µg/mL (≈ 7.66 µM) | 2 µg/mL (≈ 7.66 µM) | 16 µg/mL (≈ 61.2 µM) | 1 µg/mL (≈ 3.83 µM) | 2 µg/mL (≈ 7.66 µM)
3 | CCn1cc(C(=O)O)c(=O)c2cc3c(cc21)OCO3 [Oxolinic acid] | – | – | – | – | – | – | 4 µg/mL (≈ 15.3 µM) | 64 µg/mL (≈ 245 µM) | < 0.25 µg/mL | 16 µg/mL (≈ 61.2 µM) | 8 µg/mL (≈ 30.6 µM) | 256 µg/mL (≈ 980 µM) | 8 µg/mL (≈ 30.6 µM) | resistance | 1 µg/mL (≈ 3.83 µM) | 1 µg/mL (≈ 3.83 µM) | 2 µg/mL (≈ 7.66 µM) | 8 µg/mL (≈ 30.6 µM) | 1 µg/mL (≈ 3.83 µM) | 1 µg/mL (≈ 3.83 µM)
